Where two headings read alike, the source gives them in different places.
How the values were obtained:
hypothalamic AMPK = assay: Phospho-AMPK in hypothalamic slices by Western blotting; assay type: cell-based, mice; conditions: 30 min; for effect on hypothalamic phospho-AMPK: various concentrations; for levels of phospho-AMPK: 500 nM drug
Text: FIGS. 1A-1F. AAPDs activate AMPK in hypothalamic slices.
The slices were dispersed in artificial cerebrospinal fluid buffer.

AMPK = assay: Phospho-AMPK in tissues of intact mice by Western blotting; assay type: in vivo; conditions: for stimulation of hypothalamic phospho-AMPK in intact animals: triprolidine 3 mg/kg i.p., 3 h
Protocol: (§1) FIGS. 2A-2D. AAPDs activate AMPK in intact animals. […] Hypothalami were removed and tissue lysates analyzed for phospho-AMPK or α2-AMPK activity. […] Different parts of brain were isolated and α2-AMPK activity was assayed. Bars represent the mean±SE of three independent lysates performed in triplicate. (* Student's t-test, n=5)
FIGS. 5A-5F. […] Cerebellum and liver were removed and phosphorylated AMPK (AMPK-P) detected by western blotting. Each lane represents tissue from individual mouse. […] Hypothalamus, cerebellum and liver were removed and phosphorylated AMPK (AMPK-P) detected by western blotting. Each lane represents a tissue from individual mouse. […] Hypothalamus and cerebellum were removed and phosphorylated AMPK (AMPK-P) detected by western blotting. Each lane represents a tissue from individual mouse. […] Hypothalami were removed and phosphorylated AMPK (AMPK-P) detected by western blotting. Each lane represents a tissue from an individual mouse. […] Hypothalami were removed and AMPK activity monitored as described in Material and Methods. Bars represent the mean±SE of three independent lysates performed in triplicate.
(§2) Experiments were done at age 8-10 weeks. All drugs were administered by i.p. injection. […] Procedures were approved by guidelines of the Johns Hopkins University School of Medicine Institutional Animal Care and Use Committee.
All drugs were purchased from Toronto Research Chemicals Inc. (Toronto, Canada). […] The drug was diluted with 8.5 ml saline solution, and the appropriate doses were administrated to mice. For control mice, the same solution was injected without a drug. For in vitro assays, drugs were dissolved in DMSO.

α2-AMPK = α2-AMPK activity in tissue lysates of intact mice; assay type: in vivo; conditions: leptin 3 mg/kg
Protocol: as §1, §2

histamine H1 receptors = biological target: T1, histamine H1 receptors (Rattus norvegicus, UniProt P31390); assay: Histamine H1 receptor binding, [3H]mepyramine displacement in rat brain membranes; conditions: 12 concentrations 30 pM to 10 μM, means of 3 determinations
T1 construct: from tissue; host or cells: rat forebrain membranes
Protocol: Receptor binding was assayed using rat brain membranes incubated with [^3H]mepyramine and 12 concentrations of drugs ranging from 30 pM to 10 μM in triplicate. […] Hypothalamic Slices
Briefly, rats were killed by decapitation and the forebrains removed. Brains were homogenized in 30 vol of Na-K phosphate buffer, pH 7.5, and centrifuged at 48,000×g for 10 min. The tissue was resuspended in buffer and re-centrifuged for an additional 3 times. Tissue was resuspended in buffer at 15 mg/ml.
Tissue (0.2 ml) was added to tubes containing 25 μl of drug and 25 μl of [3H]mepyramine (30 nM). Non-specific binding was determined in the presence of 1 μM triprolidine.

phospho-AMPK = conditions: ziprasidone 3 mg/kg i.p., 3 h
Protocol: Immunohistochemistry was performed with an antibody specific for phospho-AMPK. (FIG. 4D) Quantification of immunohistochemistry. Bars represent the mean±SE of five independent slides. (*p<0.005, **p<0.001 Student's t-test, n=5)
C57BL/6 mice or HR1−/− mice (8-10 weeks) were perfused with 4% paraformaldehyde maintained at 37° C. Organs were post-fixed 2 h at room temperature and cryoprotected overnight at 4° C. (30% sucrose in PBS). Free-floating sections (45 μm) were quenched with 3% H2O2 in water for 10 min at room temperature, washed in TBS-T (16 mM Tris pH 7.4, 140 mM sodium chloride, and 0.1% tween-20), and antigen retrieved for 30 min in a 70° C. water bath (10 mM sodium citrate in TBS-T). Sections were blocked (5% NGS in TBS-T) for 1 h at room temperature and incubated with a mouse anti-phospho-AMPKα antibody (Cell Signaling, Danvers, Mass.) diluted 1:200 into the blocking solution overnight at 4° C. Subsequent washes were conducted in TBST, and labeling was visualized with the Vectastain Elite ABC kit (Vector Laboratories, Burlingame, Calif.). Images were quantified with AlphaEaseFC program.

T1 sequence (P31390 whole entry): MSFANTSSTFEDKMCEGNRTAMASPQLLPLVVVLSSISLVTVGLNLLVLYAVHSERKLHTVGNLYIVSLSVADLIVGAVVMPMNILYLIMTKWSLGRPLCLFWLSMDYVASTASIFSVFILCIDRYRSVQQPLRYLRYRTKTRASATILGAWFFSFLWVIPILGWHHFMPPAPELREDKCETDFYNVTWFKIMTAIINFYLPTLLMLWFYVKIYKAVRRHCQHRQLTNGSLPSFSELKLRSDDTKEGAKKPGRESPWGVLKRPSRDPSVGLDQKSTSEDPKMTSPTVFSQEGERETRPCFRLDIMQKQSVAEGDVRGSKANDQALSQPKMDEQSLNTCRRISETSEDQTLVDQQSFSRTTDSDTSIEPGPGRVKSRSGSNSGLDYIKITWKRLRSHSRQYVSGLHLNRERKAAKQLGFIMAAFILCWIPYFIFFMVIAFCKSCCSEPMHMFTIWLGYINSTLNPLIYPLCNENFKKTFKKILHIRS

leptin was tested, and the “effect on hypothalamic phospho-AMPK” value (hypothalamic AMPK) was “reductions”, the “hypothalamic phospho-AMPK” value (AMPK; intact mice, leptin 3 mg/kg) was “reduces” and the “hypothalamic AMPK catalytic activity” value (α2-AMPK) was “reduces”.
For insulin, the “effect on hypothalamic phospho-AMPK” value (hypothalamic AMPK) was “reductions”.
With `O=C1CCc2ccc(OCCCCN3CCN(c4cccc(Cl)c4Cl)CC3)cc2N1` [Aripipirazole] the IC50 (histamine H1 receptors) was over 3 µM and the “levels of phospho-AMPK” value (hypothalamic AMPK) was “fail to stimulate”.
`Cc1ccc(/C(=C\CN2CCCC2)c2ccccn2)cc1` [triprolidine] was tested, and the “stimulation of phospho-AMPK” value (hypothalamic AMPK; triprolidine 50 or 500 nM vs clozapine 200 nM) was “to the same extent as clozapine”, the “stimulation of hypothalamic phospho-AMPK in intact animals” value (AMPK) was “to the same extent as clozapine” and the “stimulation of hypothalamic phospho-AMPK in intact animals” value (AMPK; listed as Triprolidine) was “activates”.
With `Cc1nc2n(c(=O)c1CCN1CCC(c3noc4cc(F)ccc34)CC1)CCCC2` [Risperidone] the “levels of phospho-AMPK” value (hypothalamic AMPK) was “fail to stimulate”.
For `O=C1Cc2cc(CCN3CCN(c4nsc5ccccc45)CC3)c(Cl)cc2N1` [Ziprasidone], the “phospho-AMPK in the paraventricular nucleus / hypothalamus” value (phospho-AMPK) was “fails to alter”, the “phospho-AMPK in the paraventricular nucleus / hypothalamus” value (phospho-AMPK; listed as Ziprasodine) was “no effect” and the IC50 (histamine H1 receptors) was 0.15 µM. The “levels of phospho-AMPK” value (hypothalamic AMPK) was “fail to stimulate”.
In the case of `O=C(CCCN1CCC(O)(c2ccc(Cl)cc2)CC1)c1ccc(F)cc1` [Haloperidol], the “levels of phospho-AMPK” value (hypothalamic AMPK) is reported as “fail to stimulate”.
`NCCc1c[nH]cn1` [histamine] was tested, and the “effect of histamine on phospho-AMPK” value (hypothalamic AMPK; different concentrations of histamine) was “decreases”.

From patent US8148095B2, “Methods for predicting psychotropic drugs which elicit weight gain” (The Johns Hopkins University, priority 2006, dated 2012)
